Assays:
[1] = target: T1, 5HT1A receptors (Rattus norvegicus, UniProt P19327); assay: Spontaneous tail flick (STF) test, agonist (alone) and antagonist (vs 8-OH-DPAT); type: in vivo, rat (male Wistar); design: from tissue; host or cells: whole living male Wistar rats (endogenous receptor)
T1 sequence (P19327 1-422): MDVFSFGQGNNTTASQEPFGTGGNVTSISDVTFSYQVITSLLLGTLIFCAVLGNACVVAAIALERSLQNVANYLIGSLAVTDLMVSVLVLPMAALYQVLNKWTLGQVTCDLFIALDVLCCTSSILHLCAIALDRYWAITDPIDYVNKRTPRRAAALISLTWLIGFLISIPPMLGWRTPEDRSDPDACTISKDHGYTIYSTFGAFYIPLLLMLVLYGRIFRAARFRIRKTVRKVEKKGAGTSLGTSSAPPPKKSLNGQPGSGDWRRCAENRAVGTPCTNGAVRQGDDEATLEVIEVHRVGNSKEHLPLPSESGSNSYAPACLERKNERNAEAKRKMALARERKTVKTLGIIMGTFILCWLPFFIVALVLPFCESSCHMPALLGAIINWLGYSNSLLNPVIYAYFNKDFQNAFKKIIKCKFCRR
Procedure: (§1) The tests were carried out using male Wistar rats weighing 200 to 220 g having free access to their food and to their drinking water in standard cages.
(§2) The animals are isolated individually for the tests for hypothermia, corticosterone secretion and flat body posture, or combined in groups of three for the tailflick test.
(§3) The compounds to be studied were administered by the subcutaneous route (s.c.) 60 minutes before the beginning of the test, that is to say 30 minutes before the solvent (agonist responses) or the 8-OH-DPAT (antagonist responses).
(§4) In all of the tests the solvent is used in parallel as a control. The animals were left to rest in their cage during the period between the injections and the evaluation. For the agonist studies, the solvent was administered at 1 ml/kg s.c. 30 minutes before the beginning of the test. For the antagonist studies, doses of 8-OH-DPAT that induce sub-maximal responses were chosen, that is doses of 0.63, 0.16, 0.16 and 0.16 mg/kg s.c. for, respectively, the tail flick test, flat body posture test, corticosterone secretion test and hypothermia test.
The tail flicks were determined on the animals in horizontal opaque plastics cylinders with the tail of the animals hanging freely on the edge of the laboratory work bench. After allowing 5 minutes for adaptation, the number of movements made in 5 minutes was recorded. An STF is defined as being an elevation of the tail to a level higher than that of the axis of the body [Millan M. J. et al., J. Pharmacol. Exp. Ther., 256, 973-982 (1990)].
(§5) In general, after variance analysis, the results are subjected to the Dunett test. The results are taken as significant if p <0.05.
(§6) The doses of the compounds tested are all expressed in base terms. Unless specified otherwise, all of the compounds were dissolved in sterile water (to which if necessary a few drops of lactic acid were added) and administered at a volume of 1 ml/kg s.c.

[2] = target: T1, 5HT1A receptors; assay: Corticosterone secretion (CS), agonist (alone) and antagonist (vs 8-OH-DPAT); type: in vivo, rat (male Wistar); design: from tissue; host or cells: whole living male Wistar rats (endogenous receptor)
Procedure: as §1, §2, §3, §4
The same animals were used to evaluate the influence of the compounds studied on FBP and on the determination of the plasma concentration of CS. All of the tests were carried out in the morning between 10.30 and 12.300 that is to say when the circadian levels of CS are lowest.
The presence of FBP is defined by a characteristic posture of the animal. That posture is in the ventral decubitus position with the posterior limbs clearly extended. 5 minutes after the observation of FBP, the animals are decapitated and the blood from the trunk is collected in cooled tubes containing 50 μl of a 10% EDTA solution. After centrifugation at 4000 revs/min, the plasma is removed and stored at -30° C. until determination.
The CS was determined by a radio-competitive determination for a plasma protein that binds the CS: transcortine. The latter is obtained from a monkey serum. The separation of the CS-transcortine complexes from the free CS was carried out by means of a solution of dextran and active carbon. The detection limit was 50 pg/tube. The intra- and inter-experiment variations in determination were 5 and 15% respectively [cf Rivet J. M. et al, Eur. J. Pharmacol., 183,634-635 (1990)].
The CS base rates in the plasma never being zero, the following formula was used to calculated the percentage inhibition of plasma CS induced by 8-OH-DPAT: [formula]
as §5, §6

[3] = target: T1, 5HT1A receptors; assay: In vitro binding test, 5HT1A receptors ([3H]-8-OH-DPAT, hippocampus membranes); design: The hippocampus of the brains of decapitated rats was immediately frozen; from tissue; host or cells: hippocampus membranes of male Wistar rats; species or system rat (male Wistar); conditions: rat hippocampus; [3H]-8-OH-DPAT 0.4 nM; 30 min at 25° C; read-out: AFFINITY (pKi) (converted)
Procedure: as §1
The hippocampus of the brains of decapitated rats was immediately frozen on solid carbon dioxide and then kept at -80° C. until preparation of the membranes. The tissue was homogenised at 4° C. in the appropriate buffer using a Polytron (Brinkman Instruments, Lucerne, Switzerland) and centrifuged at 20,000 revs/min.
Incubation was carried out for 30 minutes at 25° C. Non-specific binding was established by […] of 5HT. The tests were terminated by rapid filtration using a Brandel harvester through glass fibre filters pretreated with 0.1% polyethylene imine.
The IC50 values were determined in accordance with process 8 of Tallarida R. J. and Murray R. B., Manual of Pharmacological calculations with computer programs, Springer Verlag, New York, (1987).
The pKi was calculated in accordance with the following formula: [formula] wherein [L] is the concentration of the hot ligand (^[3] H-8-OH-DPAT, 0.4 nM) and Kd is the apparent dissociation constant determined from the saturation experiments.
The substances studied were dissolved in the incubation buffer.
Binding of 5HT1A receptors

[4] = target: T1, 5HT1A receptors; assay: Body temperature / hypothermia, agonist (alone) and antagonist (vs 8-OH-DPAT); type: in vivo, rat (male Wistar); design: from tissue; host or cells: whole living male Wistar rats (endogenous receptor)
Procedure: as §1, §2, §3, §4
The rats are immobilised and a lubricated digital thermometer (Termistroprobe of Testotherm, Basle, Switzerland) is inserted into the rectum to a depth of 5 cm. 30 seconds after insertion, the temperature is read on a digital scale. The percentage inhibition is calculated using the formula given above.
as §5, §6

[5] = agonist test, compound alone s.c., minimum effective dose vs control

Compound: c1cc2c(c(N3CCN(CCCc4ccsc4)CC3)c1)OCCO2 [Example 1, 4-(Benzodioxan-5-yl)-1-[3-(thiophen-3-yl)propyl]piperazine]
- STFs MED alone [1, 5]: > 10.0 mg/kg
- ED50 ([1]; rat, sc, antagonist test, s.c., vs 8-OH-DPAT 0.63 mg/kg s.c., read-out: STFs ID50 (95% CL) + DPAT): 0.12 mg/kg
- % MPA (% maximum possible antagonism), STFs ([1]; vs 8-OH-DPAT 0.63 mg/kg s.c.): 92%
- CS secretion MED alone [2, 5]: 10.0 mg/kg
- ED50 ([2]; rat, sc, antagonist test, s.c., vs 8-OH-DPAT 0.16 mg/kg s.c., read-out: CS secretion ID50 (95% CL) + DPAT): 0.43 mg/kg
- % MPA (% maximum possible antagonism), CS secretion ([2]; vs 8-OH-DPAT 0.16 mg/kg s.c.): 100%
- Ki [3]: 1.74 nM
- HYPOTHERMIA MED alone [4, 5]: 10.0 mg/kg
- ED50 ([4]; rat, sc, antagonist test, s.c., vs 8-OH-DPAT 0.16 mg/kg s.c., read-out: HYPOTHERMIA ID50 (95% CL) + DPAT): 0.16 mg/kg
- % MPA (% maximum possible antagonism), HYPOTHERMIA ([4]; vs 8-OH-DPAT 0.16 mg/kg s.c.): 98%
